Laboratory results as given in patent US20220389061A1, “IMMUNOMODULATORS” (priority 2019, published 2022).
Starred links: 1 amine or outer side, 2 acyl side, 3 side chain; linkers in the order of their positions; H or OH if unused. Positions of bridges follow the written chain, without caps; N, C: chain ends. Non-standard residues stand in square brackets, D forms with d. Residues, ends and D or L forms follow the SMILES beside them. Groups on a side chain read outwards from the residue. *: point of attachment. Trp(1-CH2CO2Me) = COC(=O)Cn1cc(C[C@H](N)C(=O)O)c2ccccc21; Trp(1-CH2COOH) = N[C@@H](Cc1cn(CC(=O)O)c2ccccc12)C(=O)O; Benzoyl(2-(4-MeOPh)) = COc1ccc(-c2ccccc2C(=O)*)cc1; X73 = FC(F)(F)c1cc(NC(=S)*)cc(C(F)(F)F)c1; X88 = Cc1cc([N+](=O)[O-])ccc1NC(=S)*; X38 = N#Cc1c[nH]c2c(NC(=S)*)cccc12; X75 = S=C(Nc1ccc(C2CC2)c2ccccc12)*; Hyp = O=C(O)[C@@H]1C[C@@H](O)CN1; X56 = COc1cc([N+](=O)[O-])ccc1N*; X10 = S=C(Nc1ccc(N2CCOCC2)cc1)*; X3 = S=C(Nc1ccc(Oc2ccccc2)cc1)*; X30 = FC(F)(F)c1ccc(N*)c(Cl)c1; NMeNle = CCCC[C@H](NC)C(=O)O; X4 = S=C(Nc1ccc2c(c1)OCCO2)*; X92 = FC(F)(F)c1cc(Cl)ccc1N*; X48 = O=C(c1ccc2ccoc2c1)*; NMeA = CN[C@@H](C)C(=O)O; Dab = NCC[C@H](N)C(=O)O; Dap = NC[C@H](N)C(=O)O; X26 = S=C(Nc1ccccc1)*; CO = O=C([*:1])[*:2]

biological target: T1, PD-1/PD-L1 (Homo sapiens, UniProt Q9NZQ7); test: PD-1/PD-L1 Homogenous Time-Resolved Fluorescence (HTRF) binding assay; conditions: PD-L1-His 10 nM pre-incubated with inhibitor, PD-1-Ig 20 nM; read-out: HTRF IC50
T1 construct: TVMV protease site linker (C); made in house; host or cells: HEK293T cells
T1 sequence (Q9NZQ7 18-239): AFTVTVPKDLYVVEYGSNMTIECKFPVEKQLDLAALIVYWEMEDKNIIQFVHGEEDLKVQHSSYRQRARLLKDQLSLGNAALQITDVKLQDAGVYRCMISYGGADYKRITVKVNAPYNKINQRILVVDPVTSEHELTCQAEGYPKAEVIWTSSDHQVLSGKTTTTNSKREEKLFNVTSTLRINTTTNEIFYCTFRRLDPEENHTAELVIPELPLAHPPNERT
In short: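 HTRF read-out using europium cryptate anti-Ig (1 nM) and APC anti-His (20 nM) on extracellular-domain fusion proteins in dPBS/0.1% BSA/0.05% Tween-20. Inhibitor first incubated 15 min with 10 nM PD-L1-His, followed by 20 nM PD-1-Ig for another 15 min.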

IC50	Structure (SMILES)
5.2 nM	CCCC[C@H]1C(=O)N(C)[C@@H](CCCC)C(=O)N[C@@H](CC(C)C)C(=O)N[C@H](C(=O)NCC(N)=O)CSCC(=O)N[C@@H](Cc2ccc(O)cc2)C(=O)N(C)[C@@H](C)C(=O)N[C@@H](CC(N)=O)C(=O)N2CCC[C@H]2C(=O)N[C@@H](CNC(=S)Nc2cccc3c(C#N)c[nH]c23)C(=O)N[C@@H](CC(C)C)C(=O)N2C[C@H](O)C[C@H]2C(=O)N[C@@H](Cc2c[nH]c3ccccc23)C(=O)N[C@@H](CCN)C(=O)N[C@@H](Cc2cn(CC(=O)O)c3ccccc23)C(=O)N1C [Example 3067] ({CH2CO}-Y[NMeA]NP[Dap](X38)L[Hyp]W[Dab][Trp(1-CH2COOH)][NMeNle][NMeNle]LCG-NH2; thioether N-14)
2.4 nM	CCCC[C@H]1C(=O)N(C)[C@@H](CCCC)C(=O)N[C@@H](CC(C)C)C(=O)N[C@H](C(=O)NCC(N)=O)CSCC(=O)N[C@@H](Cc2ccc(O)cc2)C(=O)N(C)[C@@H](C)C(=O)N[C@@H](CC(N)=O)C(=O)N2CCC[C@H]2C(=O)N[C@@H](CNC(=O)Nc2ccc([N+](=O)[O-])cc2OC)C(=O)N[C@@H](CC(C)C)C(=O)N2C[C@H](O)C[C@H]2C(=O)N[C@@H](Cc2c[nH]c3ccccc23)C(=O)N[C@@H](CCN)C(=O)N[C@@H](Cc2cn(CC(=O)O)c3ccccc23)C(=O)N1C [Example 1108] ({CH2CO}-Y[NMeA]NP[Dap]([CO-X56])L[Hyp]W[Dab][Trp(1-CH2COOH)][NMeNle][NMeNle]LCG-NH2; thioether N-14)
4.9 nM	CCCC[C@H]1C(=O)N(C)[C@@H](CCCC)C(=O)N[C@@H](CC(C)C)C(=O)N[C@H](C(=O)NCC(N)=O)CSCC(=O)N[C@@H](Cc2ccc(O)cc2)C(=O)N(C)[C@@H](C)C(=O)N[C@@H](CC(N)=O)C(=O)N2CCC[C@H]2C(=O)N[C@@H](CNC(=S)Nc2ccc([N+](=O)[O-])cc2C)C(=O)N[C@@H](CC(C)C)C(=O)N2C[C@H](O)C[C@H]2C(=O)N[C@@H](Cc2c[nH]c3ccccc23)C(=O)N[C@@H](CCN)C(=O)N[C@@H](Cc2cn(CC(=O)O)c3ccccc23)C(=O)N1C [Example 1072] ({CH2CO}-Y[NMeA]NP[Dap](X88)L[Hyp]W[Dab][Trp(1-CH2COOH)][NMeNle][NMeNle]LCG-NH2; thioether N-14)
0.9 nM	CCCC[C@H]1C(=O)N(C)[C@@H](CCCC)C(=O)N[C@@H](CC(C)C)C(=O)N[C@H](C(=O)NCC(N)=O)CSCC(=O)N[C@@H](Cc2ccc(O)cc2)C(=O)N(C)[C@@H](C)C(=O)N[C@@H](CC(N)=O)C(=O)N2CCC[C@H]2C(=O)N[C@@H](CNC(=S)Nc2ccc(N3CCOCC3)cc2)C(=O)N[C@@H](CC(C)C)C(=O)N2C[C@H](O)C[C@H]2C(=O)N[C@@H](Cc2c[nH]c3ccccc23)C(=O)N[C@@H](CCN)C(=O)N[C@@H](Cc2cn(CC(=O)O)c3ccccc23)C(=O)N1C [Example 1055] ({CH2CO}-Y[NMeA]NP[Dap](X10)L[Hyp]W[Dab][Trp(1-CH2COOH)][NMeNle][NMeNle]LCG-NH2; thioether N-14)
1.9 nM	CCCC[C@H]1C(=O)N(C)[C@@H](CCCC)C(=O)N[C@@H](CC(C)C)C(=O)N[C@H](C(=O)NCC(N)=O)CSCC(=O)N[C@@H](Cc2ccc(O)cc2)C(=O)N(C)[C@@H](C)C(=O)N[C@@H](CC(N)=O)C(=O)N2CCC[C@H]2C(=O)N[C@@H](CNC(=S)Nc2ccccc2)C(=O)N[C@@H](CC(C)C)C(=O)N2C[C@H](O)C[C@H]2C(=O)N[C@@H](Cc2c[nH]c3ccccc23)C(=O)N[C@@H](CCNC(=S)Nc2ccccc2)C(=O)N[C@@H](Cc2cn(CC(=O)O)c3ccccc23)C(=O)N1C [Example 1001] ({CH2CO}-Y[NMeA]NP[Dap](X26)L[Hyp]W[Dab](X26)[Trp(1-CH2COOH)][NMeNle][NMeNle]LCG-NH2; thioether N-14)
3 nM	CCCC[C@H]1C(=O)N(C)[C@@H](CCCC)C(=O)N[C@@H](CC(C)C)C(=O)N[C@H](C(=O)NCC(N)=O)CSCC(=O)N[C@@H](Cc2ccc(O)cc2)C(=O)N(C)[C@@H](C)C(=O)N[C@@H](CC(N)=O)C(=O)N2CCC[C@H]2C(=O)N[C@@H](CNC(=S)Nc2ccc(C3CC3)c3ccccc23)C(=O)N[C@@H](CC(C)C)C(=O)N2C[C@H](O)C[C@H]2C(=O)N[C@@H](Cc2c[nH]c3ccccc23)C(=O)N[C@@H](CCN)C(=O)N[C@@H](Cc2cn(CC(=O)O)c3ccccc23)C(=O)N1C [Example 3044] ({CH2CO}-Y[NMeA]NP[Dap](X75)L[Hyp]W[Dab][Trp(1-CH2COOH)][NMeNle][NMeNle]LCG-NH2; thioether N-14)

More lines, now with the values behind:

Structure (SMILES)	IC50
CCCC[C@H]1C(=O)N(C)[C@@H](CCCC)C(=O)N[C@@H](CC(C)C)C(=O)N[C@H](C(=O)NCC(N)=O)CSCC(=O)N[C@@H](Cc2ccc(O)cc2)C(=O)N(C)[C@@H](C)C(=O)N[C@@H](CC(N)=O)C(=O)N2CCC[C@H]2C(=O)N[C@@H](CNC(=S)Nc2ccc(Oc3ccccc3)cc2)C(=O)N[C@@H](CC(C)C)C(=O)N2C[C@H](O)C[C@H]2C(=O)N[C@@H](Cc2c[nH]c3ccccc23)C(=O)N[C@@H](CCNC(=S)Nc2ccc(Oc3ccccc3)cc2)C(=O)N[C@@H](Cc2cn(CC(=O)O)c3ccccc23)C(=O)N1C [Example 1046] ({CH2CO}-Y[NMeA]NP[Dap](X3)L[Hyp]W[Dab](X3)[Trp(1-CH2COOH)][NMeNle][NMeNle]LCG-NH2; thioether N-14)	11 nM
CCCC[C@H]1C(=O)N(C)[C@@H](CCCC)C(=O)N[C@@H](CC(C)C)C(=O)N[C@H](C(=O)NCC(N)=O)CSCC(=O)N[C@@H](Cc2ccc(O)cc2)C(=O)N(C)[C@@H](C)C(=O)N[C@@H](CC(N)=O)C(=O)N2CCC[C@H]2C(=O)N[C@@H](CNC(=O)Nc2ccc(Cl)cc2C(F)(F)F)C(=O)N[C@@H](CC(C)C)C(=O)N2C[C@H](O)C[C@H]2C(=O)N[C@@H](Cc2c[nH]c3ccccc23)C(=O)N[C@@H](CCNC(=O)Nc2ccc(Cl)cc2C(F)(F)F)C(=O)N[C@@H](Cc2cn(CC(=O)O)c3ccccc23)C(=O)N1C [Example 1138] ({CH2CO}-Y[NMeA]NP[Dap]([CO-X92])L[Hyp]W[Dab]([CO-X92])[Trp(1-CH2COOH)][NMeNle][NMeNle]LCG-NH2; thioether N-14)	9.7 nM
CCCC[C@H]1C(=O)N(C)[C@@H](CCCC)C(=O)N[C@@H](CC(C)C)C(=O)N[C@H](C(=O)NCC(N)=O)CSCC(=O)N[C@@H](Cc2ccc(O)cc2)C(=O)N(C)[C@@H](C)C(=O)N[C@@H](CC(N)=O)C(=O)N2CCC[C@H]2C(=O)N[C@@H](CNC(=O)c2ccc3ccoc3c2)C(=O)N[C@@H](CC(C)C)C(=O)N2C[C@H](O)C[C@H]2C(=O)N[C@@H](Cc2c[nH]c3ccccc23)C(=O)N[C@@H](CCNC(=O)c2ccc3ccoc3c2)C(=O)N[C@@H](Cc2cn(CC(=O)OC)c3ccccc23)C(=O)N1C [Example 3011] ({CH2CO}-Y[NMeA]NP[Dap](X48)L[Hyp]W[Dab](X48)[Trp(1-CH2CO2Me)][NMeNle][NMeNle]LCG-NH2; thioether N-14)	8.2 nM
CCCC[C@H]1C(=O)N(C)[C@@H](CCCC)C(=O)N[C@@H](CC(C)C)C(=O)N[C@H](C(=O)NCC(N)=O)CSCC(=O)N[C@@H](Cc2ccc(O)cc2)C(=O)N(C)[C@@H](C)C(=O)N[C@@H](CC(N)=O)C(=O)N2CCC[C@H]2C(=O)N[C@@H](CNC(=O)c2ccccc2-c2ccc(OC)cc2)C(=O)N[C@@H](CC(C)C)C(=O)N2C[C@H](O)C[C@H]2C(=O)N[C@@H](Cc2c[nH]c3ccccc23)C(=O)N[C@@H](CCNC(=O)c2ccccc2-c2ccc(OC)cc2)C(=O)N[C@@H](Cc2cn(CC(=O)OC)c3ccccc23)C(=O)N1C [Example 1050] ({CH2CO}-Y[NMeA]NP[Dap](Benzoyl(2-(4-MeOPh)))L[Hyp]W[Dab](Benzoyl(2-(4-MeOPh)))[Trp(1-CH2CO2Me)][NMeNle][NMeNle]LCG-NH2; thioether N-14)	39 nM
CCCC[C@H]1C(=O)N(C)[C@@H](CCCC)C(=O)N[C@@H](CC(C)C)C(=O)N[C@H](C(=O)NCC(N)=O)CSCC(=O)N[C@@H](Cc2ccc(O)cc2)C(=O)N(C)[C@@H](C)C(=O)N[C@@H](CC(N)=O)C(=O)N2CCC[C@H]2C(=O)N[C@@H](CNC(=S)Nc2ccc3c(c2)OCCO3)C(=O)N[C@@H](CC(C)C)C(=O)N2C[C@H](O)C[C@H]2C(=O)N[C@@H](Cc2c[nH]c3ccccc23)C(=O)N[C@@H](CCNC(=S)Nc2ccc3c(c2)OCCO3)C(=O)N[C@@H](Cc2cn(CC(=O)O)c3ccccc23)C(=O)N1C [Example 3069] ({CH2CO}-Y[NMeA]NP[Dap](X4)L[Hyp]W[Dab](X4)[Trp(1-CH2COOH)][NMeNle][NMeNle]LCG-NH2; thioether N-14)	3.1 nM
CCCC[C@H]1C(=O)N(C)[C@@H](CCCC)C(=O)N[C@@H](CC(C)C)C(=O)N[C@H](C(=O)NCC(N)=O)CSCC(=O)N[C@@H](Cc2ccc(O)cc2)C(=O)N(C)[C@@H](C)C(=O)N[C@@H](CC(N)=O)C(=O)N2CCC[C@H]2C(=O)N[C@@H](CNC(=S)Nc2cc(C(F)(F)F)cc(C(F)(F)F)c2)C(=O)N[C@@H](CC(C)C)C(=O)N2C[C@H](O)C[C@H]2C(=O)N[C@@H](Cc2c[nH]c3ccccc23)C(=O)N[C@@H](CCN)C(=O)N[C@@H](Cc2cn(CC(=O)O)c3ccccc23)C(=O)N1C [Example 1136] ({CH2CO}-Y[NMeA]NP[Dap](X73)L[Hyp]W[Dab][Trp(1-CH2COOH)][NMeNle][NMeNle]LCG-NH2; thioether N-14)	14 nM
CCCC[C@H]1C(=O)N(C)[C@@H](CCCC)C(=O)N[C@@H](CC(C)C)C(=O)N[C@H](C(=O)NCC(N)=O)CSCC(=O)N[C@@H](Cc2ccc(O)cc2)C(=O)N(C)[C@@H](C)C(=O)N[C@@H](CC(N)=O)C(=O)N2CCC[C@H]2C(=O)N[C@@H](CNC(=O)Nc2ccc(C(F)(F)F)cc2Cl)C(=O)N[C@@H](CC(C)C)C(=O)N2C[C@H](O)C[C@H]2C(=O)N[C@@H](Cc2c[nH]c3ccccc23)C(=O)N[C@@H](CCNC(=O)Nc2ccc(C(F)(F)F)cc2Cl)C(=O)N[C@@H](Cc2cn(CC(=O)O)c3ccccc23)C(=O)N1C [Example 1116] ({CH2CO}-Y[NMeA]NP[Dap]([CO-X30])L[Hyp]W[Dab]([CO-X30])[Trp(1-CH2COOH)][NMeNle][NMeNle]LCG-NH2; thioether N-14)	18 nM
